Laboratory results as given in patent US6143764A, “Quinoline and quinazoline derivatives inhibiting platelet-derived growth factor receptor autophosphorylation and pharmaceutical compositions containing the same” (priority 1995, dated 2000).
Where two headings read alike, the source gives them in different places.

Assays:
human glioma (GLO7) = assay: Antitumor effect of the compounds against human glioma (GLO7), nude mice xenograft; assay type: in vivo; conditions: Mus musculus, po, 216 h, read-out: Tumor growth inhibition rate (TGIR)
Experimental: Analogously to 2, human glioma cells, GLO7 (obtained from the Central Institute for Experimental Animals), was transplanted into nude mice. When the tumor had grown to a volume of about 100 mm^3, the nude mice were divided into several groups of 4 animals so as to equalize the average tumor volumes of each group. The test drug was administered orally to animals in experimental groups once a day for 9 consecutive days at 50 mg/kg, and the vehicle was administered to control animals. The tumor growth inhibition rate (TGIR, %) was calculated from the equation: TGIR=(1-Tx/Cx)×100, in which Cx is the tumor volume in the control mice and Tx is the tumor volume in the drug-treated mice, on day X, when the initial tumor volume at the time treatment was commenced is set 1.

PDGF receptor = molecular target: T1, PDGF receptor (Rattus norvegicus, UniProt Q05030); assay: PDGF receptor autophosphorylation inhibition in cultured rat mesangial cells; assay type: cell-based; conditions: PDGF-BB 50 ng/ml
T1 construct: cultured rat mesangial cells which are known to have the PDGF receptor; endogenous in cells; host or cells: primary mesangial cells cultured from glomeruli of Wistar-Kyoto rats (Charles River Japan), more than 5 passages
T1 sequence (Q05030 32-1097): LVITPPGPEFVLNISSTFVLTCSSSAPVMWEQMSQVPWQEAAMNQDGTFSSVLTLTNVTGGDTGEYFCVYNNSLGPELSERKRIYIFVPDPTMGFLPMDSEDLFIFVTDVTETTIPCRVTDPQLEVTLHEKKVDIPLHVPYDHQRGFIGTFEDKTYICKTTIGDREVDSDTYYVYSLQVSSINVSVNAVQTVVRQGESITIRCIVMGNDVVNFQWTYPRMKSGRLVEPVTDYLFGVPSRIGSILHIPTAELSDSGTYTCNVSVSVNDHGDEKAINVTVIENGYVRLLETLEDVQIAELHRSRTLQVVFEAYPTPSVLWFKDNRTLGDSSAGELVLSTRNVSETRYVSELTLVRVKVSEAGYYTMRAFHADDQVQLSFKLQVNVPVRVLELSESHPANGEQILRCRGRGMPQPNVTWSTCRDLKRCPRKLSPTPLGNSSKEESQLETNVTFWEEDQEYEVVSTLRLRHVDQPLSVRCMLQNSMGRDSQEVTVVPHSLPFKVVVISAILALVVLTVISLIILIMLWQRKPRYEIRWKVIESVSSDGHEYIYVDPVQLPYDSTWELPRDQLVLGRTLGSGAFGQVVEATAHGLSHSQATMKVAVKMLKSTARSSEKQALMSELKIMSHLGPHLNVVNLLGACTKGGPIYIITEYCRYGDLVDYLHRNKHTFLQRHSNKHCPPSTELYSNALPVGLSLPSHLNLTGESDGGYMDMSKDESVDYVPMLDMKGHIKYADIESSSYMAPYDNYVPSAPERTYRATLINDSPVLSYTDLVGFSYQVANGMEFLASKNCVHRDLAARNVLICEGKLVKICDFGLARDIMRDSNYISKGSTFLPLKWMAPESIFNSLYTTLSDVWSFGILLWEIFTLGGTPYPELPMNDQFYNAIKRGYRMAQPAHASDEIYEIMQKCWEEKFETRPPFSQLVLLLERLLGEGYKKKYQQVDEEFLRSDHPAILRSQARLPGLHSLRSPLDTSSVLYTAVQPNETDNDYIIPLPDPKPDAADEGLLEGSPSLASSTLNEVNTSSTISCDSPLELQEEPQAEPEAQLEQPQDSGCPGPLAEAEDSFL
Experimental: 1. Cultivation of rat mesangial cells
The glomerulus-derived adhesive cells were subcultured several times to obtain mesangial cells. The mesangial cells subcultured more than 5 passages were used for the assay.
2.Evaluation of PDGF receptor autophosphorylation inhibition
The mesangial cells were seeded in 24-well flat-bottom microtiter plates and then cultured in the medium containing 10% FCS for 2 days. When the cells were grown to about 3×10^4 cells per well, the medium was changed to the medium containing 0.5% FCS, the cultivation was continued for another 3 days, and then cell growth was arrested. The culture medium was removed, the adhered cells were washed with 500 μl of the medium, and 250 μl of the medium containing 0.1% bovine serum albumin (hereinafter abbreviated to BSA) was then added. A test drug dissolved in 1.38 μl of dimethyl sulfoxide (hereinafter abbreviated to DMSO) was added to this culture medium, and the admixture was incubated at 37° C. for 1 hour. Recombinant human platelet-derived growth factor BB chain (hereinafter abbreviated to PDGF-BB) was dissolved in the medium containing 0.1% BSA, 25 μl per well of the solution was added at final 50 ng/ml, and the incubation was continued at 37° C. for 10 minutes. […] The cells were allowed to stand at 4° C. for 30 minutes for lysis, and the resulting solution was thoroughly admixed with an equal amount of Tris-buffered physiological saline containing 1% sodium dodecyl sulfate (hereinafter abbreviated to SDS). […] After the electrophoresis, proteins in the gel were electrically transferred to a PVDF filter, which was then subjected to Western blotting using monoclonal antibodies against phosphotyrosine. Bands of PDGF receptor (molecular weight: about 180 Kda) which were autophosphorylated due to the addition of PDGF-BB were quantitated by a densitometer. Autophosphorylation rates for individual wells with drugs were calculated by setting measurements for PDGF receptor autophosphorylation in the wells without drugs in the presence and absence of PDGF-BB as 100% and 0%, respectively.

[1] = nude mice, 50 mg/kg orally once a day, 9 days

SMILES	IC50 (PDGF receptor) [nM]	inhibition in vivo at 50 mg/kg (human glioma (GLO7); [1]) [%]	inhibition in vivo at 50 mg/kg (human glioma (GLO7)) [%]
CCOC(=O)NC(=O)Nc1ccc(Oc2ccnc3cc(OC)c(OC)cc23)cc1 [Compound 190, N-Ethoxycarbonyl-N'-{4-[(6,7-Dimethoxy-4-quinolyl)oxy]phenyl}urea]	21	50	
C=CCNC(=O)Nc1ccc(Oc2ccnc3cc(OC)c(OC)cc23)cc1 [Compound 173, N-Allyl-N'-{4-[(6,7-dimethoxy-4-quinolyl)oxy]phenyl}urea]	16	54	
COc1cc2nccc(Oc3ccc(NC(=O)Nc4ccc(Cl)c(Cl)c4)cc3)c2cc1OC [Compound 236, N-(3,4-Dichlorophenyl)-N'-[4-[(6,7-dimethoxy-4-quinolyl)oxy]phenyl}urea]			84
COc1cc2nccc(Oc3ccc(NC(=O)Nc4cc(F)c(F)cc4F)cc3)c2cc1OC [Compound 255, N-(2,4,5-Trifluorophenyl)-N'-{4-[(6,7-dimethoxy-4-quinolyl)oxy]phenyl}urea]	15	86	
COc1cc2nccc(Oc3ccc(NC(=O)Nc4ccc(Cl)cc4)cc3)c2cc1OC [Compound 165, N-(4-Chlorophenyl)-N'-{4-[(6,7-dimethoxy-4-quinolyl)oxy]phenyl}urea]			70
COc1cc2nccc(Oc3ccc(NC(=O)Nc4ccccc4N(C)C)cc3)c2cc1OC [Compound 191]		50	
COc1cc2nccc(Oc3ccc(NC(=O)Nc4cccc(Cl)c4OC)cc3)c2cc1OC [Compound 225, N-(3-Chloro-2-methoxyphenyl)-N'-{4-[(6,7-dimethoxy-4-quinolyl)oxy]phenyl}urea]	47	58	
COc1cc2nccc(Oc3ccc(NC(=O)Nc4ccc(C(F)(F)F)cc4)cc3)c2cc1OC [Compound 52, N-(4-Trifluoromethylphenyl)-N'-{4-[(6,7-dimethoxy-4-quinolinyl)oxy]phenyl}urea]	30	86	
COc1cc2nccc(Oc3ccc(NC(=O)Nc4cc(Cl)cc(Cl)c4)cc3)c2cc1OC [Compound 237, N-(3,5-Dichlorophenyl)-N'-{4-[(6,7-dimethoxy-4-quinolyl)oxy]phenyl}urea]			74
COc1cc2nccc(Oc3ccc(NC(=O)Nc4cc(Cl)ccc4Cl)cc3)c2cc1OC [Compound 235]			78
COc1cc2nccc(Oc3ccc(NC(=O)Nc4ccc(Cl)cc4Cl)cc3)c2cc1OC [Compound 229, N-(2,4-Dichlorophenyl)-N'-{4-[(6,7-dimethoxy-4-quinolyl)oxy]phenyl}urea]			81
COc1cc2nccc(Oc3ccc(NC(=O)Nc4ccc(C(=O)c5ccccc5)cc4)cc3)c2cc1OC [Compound 195, N-{4-[(6,7-Dimethoxy-4-quinolyl)oxy]phenyl}-N'-(4-phenylcarbonylphenyl)urea]	79		
COc1cc2nccc(Oc3ccc(NC(=O)c4ccc(N(C)C)cc4)cc3)c2cc1OC [Compound 67, N-{4-[(6,7-Dimethoxy-4-quinolinyl)oxy]phenyl}-(N,N-dimethylaminophenyl)carboxamide]	110		
CCCCc1ccc(C(=O)Nc2ccc(Oc3ccnc4cc(OC)c(OC)cc34)cc2)cc1 [Compound 69, N-{4-[(6,7-Dimethoxy-4-quinolinyl)oxy]phenyl}-(4-butylphenyl)carboxamide]	50		
COc1cc2nccc(Oc3ccc(NC(=O)NCc4ccncc4)cc3)c2cc1OC [Compound 250]	17		
COc1cc2nccc(Oc3cccc(NC(=O)Nc4ccccc4C(F)(F)F)c3)c2cc1OC [Compound 94]	23		
COc1cc2nccc(Oc3ccc(C(=O)c4ccc(N5CCCCC5)cc4)cc3)c2cc1OC [Compound 290, {4-[(6,7-Dimethoxy-4-quinolyl)oxy]phenyl}[4-piperidinophenyl]methanone]	55		
CCCCCCNC(=O)Nc1ccc(Oc2ccnc3cc(OC)c(OC)cc23)cc1 [Compound 196, N-Hexyl-N'-{4-[(6,7-dimethoxy-4-quinolyl)oxy]phenyl}urea]	31		
COc1cc2nccc(Oc3ccc(NC(=O)c4ccc([N+](=O)[O-])cc4)cc3)c2cc1OC [Compound 66, N-{4-[(6,7-Dimethoxy-4-quinolinyl)oxy]phenyl}-(4-nitrophenyl)carboxamide]	130		
COc1cccc(Oc2ccnc3cc(OC)c(OC)cc23)c1 [Compound 2, 6,7-Dimethoxy-4-(3-methoxyphenoxy)quinoline]	440		
COc1cc2nccc(Oc3ccc(NC(=O)Nc4ccc(C(C)=O)cc4)cc3)c2cc1OC [Compound 49, N-(4-Acetylphenyl)-N'-{4-[(6,7-dimethoxy-4-quinolinyl)oxy]phenyl}urea]	18		
COc1cc2nccc(Oc3ccc(NC(=O)Nc4cc(C(F)(F)F)ccc4C(F)(F)F)cc3)c2cc1OC [Compound 264, N-(2,5-Bis(trifluoromethyl)phenyl]-N'-{4-[(6,7-dimethoxy-4-quinolyl)oxy]phenyl}urea]		63	

Further molecules by falling IC50 (PDGF receptor), results first:

IC50 (PDGF receptor) [nM]	SMILES	inhibition in vivo at 50 mg/kg (human glioma (GLO7); [1]) [%]	inhibition in vivo at 50 mg/kg (human glioma (GLO7)) [%]
14	CCCNC(=O)Nc1ccc(Oc2ccnc3cc(OC)c(OC)cc23)cc1 [Compound 194, N-{4-[(6,7-Dimethoxy-4-quinolyl)oxy]phenyl}-N'-propylurea]	59	
10	COc1cc2nccc(Oc3ccc(NC(=O)Nc4ccc5c(c4)CCC5)cc3)c2cc1OC [Compound 197, N-(5-Indanyl)-N'-{4-[(6,7-dimethoxy-4-quinolyl)oxy]phenyl}urea]		
7	COc1cc2nccc(Oc3ccc(NC(=O)Nc4ccc(F)c(F)c4)cc3)c2cc1OC [Compound 254, N-(3,4-Difluorophenyl)-N'-(4-[(6,7-dimethoxy-4-quinolyl)oxy]phenyl)urea]	85	
7	COc1cc2nccc(Oc3ccc(NC(=O)Nc4cccc(OC)c4OC)cc3)c2cc1OC [Compound 268, N-(2,3-Dimethoxyphenyl)-N'-{4-[(6,7-dimethoxy-4-quinolyl)oxy]phenyl}urea]		
6	COc1ccccc1NC(=O)Nc1ccc(Oc2ccnc3cc(OC)c(OC)cc23)cc1 [Compound 57]	64	
6	COc1cc2nccc(Oc3ccc(NC(=O)Nc4ccc(F)cc4)cc3)c2cc1OC [Compound 44, N-(4-Fluorophenyl)-N'-{4-[(6,7-dimethoxy-4-quinolinyl)oxy]phenyl}urea]	78	
6	CCc1ccc(NC(=O)Nc2ccc(Oc3ccnc4cc(OC)c(OC)cc34)cc2)cc1 [Compound 188, N-(4-Ethylphenyl)-N'-{4-[(6,7-dimethoxy-4-quinolyl)oxy]phenyl}urea]		
6	COc1cc2nccc(Oc3ccc(NC(=O)Nc4ccccc4-c4ccccc4)cc3)c2cc1OC [Compound 175, N-(2-Biphenyl)-N'-{4-[(6,7-dimethoxy-4-quinolyl)oxy]phenyl}urea]		
5	COc1cc2nccc(Oc3ccc(NC(=O)Nc4cc(F)ccc4F)cc3)c2cc1OC [Compound 273, N-(2,5-Difluorophenyl)-N'-{4-[(6,7-dimethoxy-4-quinolyl)oxy]phenyl}urea]		
5	COc1cc2nccc(Oc3ccc(NC(=O)Nc4ccc(SC)cc4)cc3)c2cc1OC [Compound 163]		
4	COc1cc2nccc(Oc3ccc(NC(=O)Nc4ccccc4N)cc3)c2cc1OC [Compound 169, N-(2-Aminophenyl)-N'-{4-[(6,7-dimethoxy-4-quinolyl)oxy]phenyl}urea]		
4	COc1cc2nccc(Oc3ccc(NC(=O)Nc4cccc(N(C)C)c4)cc3)c2cc1OC [Compound 192]		
3	COc1cc2nccc(Oc3ccc(NC(=O)Nc4ccc(F)cc4F)cc3)c2cc1OC [Compound 272, N-(2,4-Difluorophenyl)-N'-{4-[(6,7-dimethoxy-4-quinolyl)oxy]phenyl}urea]	84	
3	COc1cc2nccc(Oc3ccc(NC(=O)Nc4ccc5c(c4)OCCO5)cc3)c2cc1OC [Compound 199, N-(3,4-Ethylenedioxyphenyl)-N'-{4-[(6,7-dimethoxy-4-quinolyl)oxy]phenyl}urea]		
2	COc1cc2nccc(Oc3ccc(NC(=O)Nc4c(F)ccc(F)c4F)cc3)c2cc1OC [Compound 262, N-(2,3,6-Trifluorophenyl)-N'-{4-[(6,7-dimethoxy-4-quinolyl)oxy]phenyl}urea]	87	
2	COc1cc2nccc(Oc3ccc(NC(=O)Nc4cccc(C(=O)O)c4)cc3)c2cc1OC [Compound 283, N-(3-Hydroxycarbonylphenyl)-N'-{4-[(6,7-dimethoxy-4-quinolyl)oxy]phenyl}urea]		
